Experimental data reported in publication PMC9442787, “A Modified Yeast Two-Hybrid Platform Enables Dynamic Control of Expression Intensities to Unmask Properties of Protein–Protein Interactions” (ACS Synthetic Biology, 2022).

Experiments:
SiGID1b1 = molecular target: T1, SiGID1b1 (Solanum lycopersicum, UniProt A0A3Q7J108); test: adjustable yeast two-hybrid, mScarlet-I fluorescence; format: cell-based; settings: interaction with PROCERA; estradiol/progesterone-titrated expression; 30 °C
T1 construct: gene GID1b-1; receptor fused to GAL4 BD (pBD-pZ-FLAG), PROCERA fused to GAL4 AD (pACT-Lex), in yeast Y190; with DELLA protein GAI (PROCERA)
T1 sequence (A0A3Q7J108 1-345): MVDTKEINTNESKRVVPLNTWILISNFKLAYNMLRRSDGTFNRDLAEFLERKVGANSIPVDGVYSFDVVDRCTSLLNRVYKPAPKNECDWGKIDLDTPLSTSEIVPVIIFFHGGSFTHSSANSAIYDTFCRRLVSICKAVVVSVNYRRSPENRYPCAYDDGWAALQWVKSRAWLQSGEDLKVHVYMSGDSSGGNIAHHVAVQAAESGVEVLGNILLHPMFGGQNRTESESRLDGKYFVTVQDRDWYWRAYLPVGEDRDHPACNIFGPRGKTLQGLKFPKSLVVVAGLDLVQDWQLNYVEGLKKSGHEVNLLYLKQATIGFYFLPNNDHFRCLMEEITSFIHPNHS
T1 sequence (Q7Y1B6 1-588 partner): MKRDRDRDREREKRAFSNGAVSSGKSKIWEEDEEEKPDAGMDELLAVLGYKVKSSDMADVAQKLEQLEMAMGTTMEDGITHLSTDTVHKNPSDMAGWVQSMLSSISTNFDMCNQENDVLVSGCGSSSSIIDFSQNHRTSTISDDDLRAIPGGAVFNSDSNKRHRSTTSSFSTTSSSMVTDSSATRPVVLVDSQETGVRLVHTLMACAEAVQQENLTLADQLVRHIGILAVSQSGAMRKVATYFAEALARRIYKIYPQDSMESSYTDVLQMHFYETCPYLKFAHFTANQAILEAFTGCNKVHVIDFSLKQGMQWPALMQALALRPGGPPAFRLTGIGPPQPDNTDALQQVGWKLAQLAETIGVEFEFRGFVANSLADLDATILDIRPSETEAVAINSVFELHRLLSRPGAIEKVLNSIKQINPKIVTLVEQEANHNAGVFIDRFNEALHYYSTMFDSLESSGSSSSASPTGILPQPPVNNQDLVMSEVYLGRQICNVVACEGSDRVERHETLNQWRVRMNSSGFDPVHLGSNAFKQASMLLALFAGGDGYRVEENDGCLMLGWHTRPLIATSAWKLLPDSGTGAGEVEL

PYL7 = PYL7 (Arabidopsis thaliana, UniProt Q1ECF1); settings: interaction with PP2C (HAB1 or ABI1 not told); low inducer concentrations; 30 °C
Sequence of PYL7 (Q1ECF1 whole entry): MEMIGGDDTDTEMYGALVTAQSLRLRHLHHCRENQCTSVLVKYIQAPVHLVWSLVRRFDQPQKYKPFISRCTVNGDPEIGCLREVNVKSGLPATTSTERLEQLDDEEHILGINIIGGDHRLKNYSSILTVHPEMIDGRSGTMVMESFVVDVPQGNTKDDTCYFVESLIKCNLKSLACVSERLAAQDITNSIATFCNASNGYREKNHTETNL
Sequence of PYL7 (Q9CAJ0 whole entry partner): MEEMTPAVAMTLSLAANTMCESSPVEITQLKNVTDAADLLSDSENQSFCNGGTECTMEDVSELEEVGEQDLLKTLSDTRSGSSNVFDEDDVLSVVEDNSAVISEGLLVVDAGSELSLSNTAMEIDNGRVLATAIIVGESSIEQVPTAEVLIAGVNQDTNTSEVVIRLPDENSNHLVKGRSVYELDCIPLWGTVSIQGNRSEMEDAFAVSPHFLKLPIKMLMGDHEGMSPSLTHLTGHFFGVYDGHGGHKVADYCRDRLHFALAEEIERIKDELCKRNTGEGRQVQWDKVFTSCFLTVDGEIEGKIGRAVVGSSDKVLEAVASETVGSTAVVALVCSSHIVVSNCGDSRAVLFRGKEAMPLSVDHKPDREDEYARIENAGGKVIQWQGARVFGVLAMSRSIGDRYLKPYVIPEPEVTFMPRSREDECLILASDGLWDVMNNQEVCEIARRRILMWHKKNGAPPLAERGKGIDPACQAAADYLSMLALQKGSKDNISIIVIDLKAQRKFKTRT

Row | maximal ratio of signal with ABA to mock (PYL7) | Compound | adjustable yeast two-hybrid, mScarlet-I fluorescence (SiGID1b1)
1 |  | C=C1C[C@]23C[C@@]1(O)CC[C@H]2[C@@]12C=C[C@H](O)[C@@](C)(C(=O)O1)[C@H]2[C@@H]3C(=O)O [GA3] | SiGID1b1 displayed full dependency on GA presence for interaction with SiPROCERA
2 | 4.9 | CC1=CC(=O)CC(C)(C)[C@@]1(O)/C=C/C(C)=C\C(=O)O [abscisic acid] | 
